Read-outs that look alike come from different tables or passages of the source.
Experiments:
[1] = system: Apteronotus leptorhynchus; experiment: Neuro-behavioral assay: locomotor activity and induction of anesthesia; assay type: in vivo; details: 1 μM to 60 μM, exposure times of up to 48 hours; negative control
[2] = system: Apteronotus leptorhynchus; experiment: Neuro-behavioral assay: effect on EOD frequency; assay type: in vivo; details: 1 μM to 60 μM, exposure times of up to 48 hours; negative control
[3] = system: Apteronotus leptorhynchus; experiment: Neuro-behavioral assay: chirps (EOD modulations); assay type: in vivo; details: 1 μM to 60 μM, exposure times of up to 48 hours; negative control
[4] = system: Mauthner cell; details: cited from earlier work

SMILES	Effect on locomotor activity [1]	Effect on EOD frequency [2]	Effect on EOD modulations [3]	Effect on generation and propagation of action potentials ([4]; 10 mg/L and 20 mg/L, exposure for more than 1 hour)	Effect on generation and propagation of action potentials ([4]; 40 mg/L, after 10-30 min)	Effect on generation and propagation of action potentials ([4]; 60 mg/L, exposure for at least 10-30 min)
NC12CC3CC(CC(C3)C1)C2 [Amantadine]	no effects	no effects	no effects			
CC=Cc1ccc(O)c(OC)c1 [isoeugenol]				No effect	slight decrease in the slope of action potentials	additional aspects of the action potential were affected
